The text below walks through data of ChEMBL document CHEMBL1126365, “Mechanism-based inactivation of mandelate racemase by propargylglycolate” (Bioorg Med Chem Lett, 1992).

The test system of assay [1] is Pseudomonas putida. Briefly: Kinetic inactivation against mandelate racemase from Pseudomonas putida ATCC 12633 in a solution of D2O.
The subject of assay [2] is Pseudomonas putida. The experiment in a line: Kinetic inactivation against mandelate racemase from Pseudomonas putida ATCC 12633.

For `O=C(O)[C@@H](O)c1ccccc1`, the K inact in assay [1] stood at 0.2 min⁻¹; in assay [2], 0.28 min⁻¹.
